# Read-outs that look alike come from different tables or passages of the source.
# Legend:
# [1] = system: ICR mice; assay: Forced swim test; format: in vivo; conditions: FST, oral, 1 h after administration, deDM 10 and 18 mg/kg, BUP 50 mg/kg, deDM + BUP 10 + 50 and 18 + 50 mg/kg
# Experimental: The mouse forced swim test was performed in a way similar to that published previously by Nguyen et al. ([Nguyen et al., 2017]) with some modifications. […] All compounds were administered orally via gavage at a volume of 10 mL/kg body weight, with the vehicle group receiving an equivalent volume of saline. 1 h after administration, mice underwent the forced swim test (FST), a widely used behavioral assay for evaluating antidepressant-like effects. Each mouse was individually placed in a transparent cylindrical tank filled with water (depth: 18 cm, temperature: 25°C ± 1°C) for a 6-min test session. The initial 2 min served as the acclimatization period and was not scored. Floating time during the subsequent 4 min was measured using ANY-Maze Version 4.63 video tracking software (Stoelting Co., Illinois, United States). Floating was defined as the minimum movement required to keep the animal’s head above water. Floating time (%) = floatting time(s)/240 s. The ANY-Maze software parameters were set as follows: acclimatization period = 120 s, test duration = 240 s, minimum immobility time = 2 s, and immobility sensitivity = 75%. To maintain consistent conditions, water was changed between the animals. […]
# [2] = system: ICR mice; assay: Tail suspension test; format: in vivo; conditions: TST, oral, 1 h after administration, deDM 10 and 18 mg/kg, BUP 50 mg/kg, deDM + BUP 10 + 50 and 18 + 50 mg/kg
# Experimental: The TST was adapted from the behavioral despair test described by Nguyen et al. ([Nguyen et al., 2017]), with some modifications. […] All compounds were administered orally via gavage at a volume of 10 mL/kg body weight, with the vehicle group receiving an equivalent volume of saline. One hour after administration, mice underwent a tail suspension test (TST). For the TST, each mouse was suspended by its tail, with adhesive tape attached 2 cm from the tail tip and secured to a metal rod. Care was taken to ensure a minimum distance of 15 cm between the suspended animal and the surrounding objects. The test was performed using the ANY-maze version 4.63 video tracking program (Stoelting Co., Wood Dale, IL, United States) for a total duration of 6 min. The initial 2 min served as an acclimatization period and were not scored. The immobility time during the subsequent 4 min was measured using the same software. Immobility was defined as mouse hanging passively and motionless. The ANY-Maze software parameters were set as follows: acclimatization period = 120 s, test duration = 240 s, minimum immobility time = 2 s, and immobility sensitivity = 75%. […]
# [3] = system: Sprague-Dawley rats; assay: Reserpine-induced hypothermia in rats; format: in vivo; conditions: reserpine 4 mg/kg i.p. rats, oral, 30 min after treatment; BUP 40 mg/kg, deDM 5 and 10 mg/kg, deDM + BUP 5 + 40 and 10 + 40 mg/kg
# Experimental: A reserpine-induced hypothermia test was performed according to the method described by Rojas-Corrales et al. ([Rojas-Corrales et al., 2004]; [Dhamija et al., 2017]), with some modifications. 80 male Sprague-Dawley rats were administered an intraperitoneal injection of reserpine (4 mg/kg). 18 h after the injection, rectal temperatures were measured using a rectal probe connected to a thermometer (MC-347, Omron Healthcare, Dalian, China). Rats with body temperatures not exceeding 34.5°C were considered successfully modeled. […] An additional group of ten rats not treated with reserpine served as the normal control. After the group assignment, the second phase of compound administration was initiated. The normal and model control groups received oral saline (10 mL/kg), whereas the other groups received their respective compounds orally at the specified doses, all in an equivalent volume (10 mL/kg). Rectal temperatures were measured 30 min after treatment to assess the effect of compounds in each group on the reserpine-induced hypothermia model. All experimental procedures were conducted in strict accordance with guidelines approved by the Institutional Animal Care and Use Committee of Shenzhen Salubris Pharmaceuticals Co., Ltd. A P value of less than 0.05 was considered statistically significant for comparisons between groups.
# [4] = system: C57BL/6J mice; assay: Ammonia-induced cough mouse model; format: in vivo; conditions: oral
# Experimental: Antitussive effects were investigated using a classical mouse cough model induced by ammonia liquor, with some modifications ([Jiang et al., 2014]; [Adejayan et al., 2019]). An ammonia-induced cough model in male C57BL/6J mice was used to evaluate the antitussive effects using a two-step approach. The initial screening phase aimed to identify the mice with consistent and pronounced cough responses. Individual mice were exposed to 0.2 mL of 13% ammonium hydroxide solution in 500 mL glass vials. A trained observer measured the latency period and recorded the number of coughs over a 3-min period post-exposure. […] Following a 24-h recovery period, 70 eligible mice were randomly allocated to seven treatment groups (n = 10 per group) for the compound evaluation phase. […] All compounds were administered orally at a volume of 10 mL/kg. At 0.5 h post-administration, each mouse was re-exposed to 0.2 mL of 13% ammonia in a 500 mL glass jar for 1 min. Subsequently, the trained observer recorded the number of coughs over a 3-min period following removal from the jar. […] All experimental procedures were conducted in strict compliance with guidelines approved by the Institutional Animal Care and Use Committee of Shenzhen Salubris Pharmaceuticals Co., Ltd., ensuring adherence to ethical standards in animal research. A P value of less than 0.05 was considered statistically significant for comparisons between groups.
# [5] = biological target: T1, Sigma-1 receptor (Homo sapiens, UniProt Q99720); assay: Sigma 1 receptor radioligand binding (3H-pentazocine, Jurkat cells)
# T1 construct: to the Sigma-1 receptor (Sigma-1R) of human-derived Jurkat cells; host or cells: Jurkat cells
# Experimental: The experiments were carried out in the Eurofins Discovery laboratory, and the methods were referenced from previous studies with modifications ([Prasad et al., 1999]). Competitive binding of the samples and ^3H-pentazocine to the Sigma-1 receptor (Sigma-1R) of human-derived Jurkat cells was assessed using a radioligand binding method. The ability of the compound to bind competitively to the Sigma-1 receptor (Ki) was determined by detecting the signal value of the radioligand bound to the receptor.
# [6] = biological target: T2, norepinephrine transporter (Homo sapiens, UniProt P23975); assay: Norepinephrine transporter (NET) radioligand binding (3H-Nisoxetine)
# T2 construct: purchased PerkinElmer, Inc RBHNETM400UA
# Experimental: The experiments were carried out in the Pharmaron laboratory, and the methods were referenced from previous studies with modifications ([Bylund and Toews, 1993]; [Galli et al., 1995]). Competitive binding of the compound and ^3H-Nisoxetine to NETs was assessed using a radioligand binding method. The ability of the compound to competitively bind to NET (Ki) was determined by detecting the signal value of the radioligand bound to the transporter using a Microbeta instrument (2450, Perkin Elmer, Massachusetts, United States).
# [7] = Metabolic stability in liver microsomes; format: in vitro ADME, human
# Experimental: All incubations were performed in duplicates. Verapamil was used as the positive control. After pre-warming the mixture for 5 min, reactions were initiated by the addition of NADPH (1 mM). Samples (30 μL) were taken at 0, 20, and 60 min, and the reaction was immediately terminated by adding 150 μL acetonitrile containing an analytical internal standard (IS). Samples were centrifuged at 4,000 rpm for 5 min in a centrifuge (5810R, Eppendorf, Germany), and the supernatant was analyzed by LC-MS/MS (Thermo Scientific TSQ Quantum Ultra, United States).
# The in vivo clearance values (CLint = CLint, in vitro × (mg protein/g liver weight) × (g liver weight/kg body weight)) of humans were predicted by CLint, in vitro values using physiologically-based scaling factors, hepatic microsomal protein concentrations (48.8 mg protein/g liver), and liver weights (25.7 g/kg body weight). The in vivo hepatic clearance (CLH= (Q × CLint)/(Q + CLint)) was then calculated by using CLint and hepatic blood flow, Q (20.7 mL·min^−1·kg^−1 in humans).
# [8] = Pharmacokinetic study in C57BL/6 mice; format: in vivo; conditions: male, C57BL/6, mouse, plasma, po, 20 mg/kg
# Source text: The assay was built in a way similar to that previously published by [Beconi et al. (2011)] with some modifications. A total of 36 male C57BL/6 mice, weighing between 20 and 22 g, were randomly divided into four groups of nine mice each. […] Mice in each group were numbered 1–9. Following the oral administration of the compounds in each group, blood was collected from the jugular vein at the specified time points, with three mice at each time point and two to three times for each mouse. 1–3 numbered mice had blood collection time points of 0.25, 1.5, and 7 h after the administration of the compounds, 4–6 numbered mice had blood collection time points of 0.5, 2, and 24 h after the administration of the compounds, and 7–9 numbered mice had blood collection time points of 1 and 5 h after the administration of the compounds. All blood samples were collected without anesthesia, and blood was collected in heparinized EP tubes. Plasma was obtained by centrifuging the blood at 10,000 rpm for 2 min at 4°C.
# [9] = Pharmacokinetics in male SD rat after oral administration; format: in vivo; conditions: male, SD, rat, in vivo, po, 50 mg/kg
# Source text: Results expressed as mean, n=3 per group
# [10] = biological target: NMDA receptor; conditions: for Ki: read-out: Ki, NMDA receptor, 3H-MK801 competition, rat brain membranes, mean, n = 4
# Experimental: Membrane preparation was performed as previously described ([Werling et al., 2007]). Briefly, the brains of male Sprague-Dawley rats were dissected for tissue collection. The tissue was then homogenized in ice-cold extraction solution and centrifuged at 40,000 × g for 10 min (minute). The supernatant was discarded, the precipitate was resuspended in extraction solution, and the above steps were repeated two times. Finally, the precipitate was resuspended in a 10-fold volume of resuspension solution and stored at −80°C. Protein concentration was determined using a PierceTM BCA Protein Assay Kit. The competitive binding of the compound and ^3H-MK801 to the NMDA receptor was evaluated utilizing the filtration binding method. This method involves washing unbound radioligands and subsequently quantifying the signal values of the radioligands bound to the NMDA receptor using a Microbeta instrument (catalog number: 2450, Perkin Elmer, Massachusetts, United States).
# [11] = biological target: T3, nAchR α3β4 (Homo sapiens, UniProt P30926+P32297); assay: nAchR α3β4 radioligand binding (125I-epibatidine, recombinant CHO-K1 cells)
# T3 construct: host or cells: CHO-K1
# Experimental: The experiments were carried out in the Eurofins Discovery laboratory, and the methods were referenced from previous studies with modifications ([Michelmore et al., 2002]; [Zaveri et al., 2010]). The competitive binding of the samples and ^125I-epibatidine to the nAchR α3β4 in human recombinant CHO-K1 cells was assessed using a radioligand binding method. The ability of the compound to competitively bind to nAchR α3β4 (Ki) was determined by detecting the signal value of the radioligand bound to the receptor.
# [12] = biological target: T4, serotonin transporter (Homo sapiens, UniProt P31645); assay: biochemical; format: binding; conditions: for Ki: radioligand competition, mean, n = 2
# T4 construct: purchased PerkinElmer, Inc RBHSTM400UA
# Experimental: The experiments were carried out in the Pharmaron laboratory, and the methods were referenced from previous studies with modifications ([Yang and Gouaux, 2021]). Competitive binding of the samples and ^3H-hydroxytryptamine creatine sulfate on SERT was assessed using a radioligand binding method. The ability of the compound to competitively bind to SERT (Ki) was determined by detecting the signal value of the radioligand bound to the transporter using a Microbeta instrument (2,450, Perkin Elmer, Massachusetts, United States).
# T4 sequence (P31645 whole entry): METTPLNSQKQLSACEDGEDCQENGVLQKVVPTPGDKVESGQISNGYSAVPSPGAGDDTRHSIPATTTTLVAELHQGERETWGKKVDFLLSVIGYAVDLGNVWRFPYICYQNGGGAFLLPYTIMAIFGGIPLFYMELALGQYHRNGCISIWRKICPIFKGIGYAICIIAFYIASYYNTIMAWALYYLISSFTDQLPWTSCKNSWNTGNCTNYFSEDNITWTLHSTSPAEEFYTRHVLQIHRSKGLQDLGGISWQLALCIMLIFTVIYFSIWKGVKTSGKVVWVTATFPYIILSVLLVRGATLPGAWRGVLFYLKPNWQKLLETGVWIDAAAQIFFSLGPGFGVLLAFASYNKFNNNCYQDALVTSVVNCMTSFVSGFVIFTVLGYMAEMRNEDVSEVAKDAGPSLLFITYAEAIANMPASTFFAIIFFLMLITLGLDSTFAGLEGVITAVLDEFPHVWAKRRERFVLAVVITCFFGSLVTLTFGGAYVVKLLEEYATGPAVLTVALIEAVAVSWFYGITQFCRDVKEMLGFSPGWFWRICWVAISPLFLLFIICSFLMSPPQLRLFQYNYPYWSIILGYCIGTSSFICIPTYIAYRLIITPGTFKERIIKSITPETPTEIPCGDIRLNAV
# T1 sequence (Q99720 whole entry): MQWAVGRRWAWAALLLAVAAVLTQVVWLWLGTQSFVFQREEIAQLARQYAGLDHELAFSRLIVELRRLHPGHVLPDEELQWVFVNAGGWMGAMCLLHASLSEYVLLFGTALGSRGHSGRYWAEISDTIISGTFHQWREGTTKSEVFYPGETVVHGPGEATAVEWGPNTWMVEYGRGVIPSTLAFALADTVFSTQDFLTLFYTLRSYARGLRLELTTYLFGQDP
# T2 sequence (P23975 whole entry): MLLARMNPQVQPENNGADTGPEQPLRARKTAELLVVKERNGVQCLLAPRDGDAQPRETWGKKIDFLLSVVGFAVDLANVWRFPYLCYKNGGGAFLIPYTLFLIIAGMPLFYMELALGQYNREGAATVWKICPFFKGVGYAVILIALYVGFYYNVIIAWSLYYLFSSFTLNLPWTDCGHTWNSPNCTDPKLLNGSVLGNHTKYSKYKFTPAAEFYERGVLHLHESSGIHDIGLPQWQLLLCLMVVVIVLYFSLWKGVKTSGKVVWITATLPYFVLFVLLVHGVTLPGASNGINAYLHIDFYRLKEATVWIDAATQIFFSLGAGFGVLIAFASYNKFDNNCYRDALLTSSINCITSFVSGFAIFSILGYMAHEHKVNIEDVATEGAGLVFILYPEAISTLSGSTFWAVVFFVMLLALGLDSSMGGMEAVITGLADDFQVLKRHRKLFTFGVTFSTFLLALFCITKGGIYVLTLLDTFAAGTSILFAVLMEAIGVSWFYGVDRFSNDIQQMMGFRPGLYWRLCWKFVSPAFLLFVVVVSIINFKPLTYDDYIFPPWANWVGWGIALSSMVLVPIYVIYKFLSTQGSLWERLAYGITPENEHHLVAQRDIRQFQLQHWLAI
# T3 sequence (P32297 32-505): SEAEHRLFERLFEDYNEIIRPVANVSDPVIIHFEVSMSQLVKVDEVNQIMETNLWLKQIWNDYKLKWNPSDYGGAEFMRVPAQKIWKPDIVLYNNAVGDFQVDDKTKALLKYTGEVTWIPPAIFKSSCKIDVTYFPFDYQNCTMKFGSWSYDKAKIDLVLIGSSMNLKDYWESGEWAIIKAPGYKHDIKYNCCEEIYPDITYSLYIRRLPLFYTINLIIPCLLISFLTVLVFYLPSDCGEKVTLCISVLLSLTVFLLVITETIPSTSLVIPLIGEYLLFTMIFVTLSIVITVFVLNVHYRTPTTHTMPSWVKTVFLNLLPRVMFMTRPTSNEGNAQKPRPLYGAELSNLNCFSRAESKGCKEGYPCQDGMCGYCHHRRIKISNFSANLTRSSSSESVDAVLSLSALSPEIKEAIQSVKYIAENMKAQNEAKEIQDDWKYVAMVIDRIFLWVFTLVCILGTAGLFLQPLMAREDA
# T3 sequence (P30926 22-498): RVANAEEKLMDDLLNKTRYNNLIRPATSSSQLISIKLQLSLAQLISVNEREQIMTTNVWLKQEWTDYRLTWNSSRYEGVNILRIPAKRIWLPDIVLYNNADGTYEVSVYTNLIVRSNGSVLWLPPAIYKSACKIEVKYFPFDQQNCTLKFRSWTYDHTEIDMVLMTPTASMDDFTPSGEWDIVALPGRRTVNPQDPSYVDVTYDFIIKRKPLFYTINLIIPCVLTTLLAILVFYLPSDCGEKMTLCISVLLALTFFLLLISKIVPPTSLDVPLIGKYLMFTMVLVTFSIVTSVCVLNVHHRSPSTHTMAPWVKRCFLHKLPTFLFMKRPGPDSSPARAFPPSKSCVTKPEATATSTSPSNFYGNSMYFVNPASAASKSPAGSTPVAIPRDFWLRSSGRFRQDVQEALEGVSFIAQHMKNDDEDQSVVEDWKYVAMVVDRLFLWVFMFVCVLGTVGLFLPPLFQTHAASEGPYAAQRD
compound,measurement,setting,value
"CC(NC(C)(C)C)C(=O)c1cccc(Cl)c1 (centres unmarked) [BUP, bupropion]",floating time compared to the vehicle group,[1],significantly reduced the floating time
same,immobilization time compared to the vehicle group,[2],significantly reduced the immobilization time
same,body temperature compared with the model (vehicle) group,[3],significantly increased the body temperature
same,cough inhibition rate,"[4]; 40 mg/kg, 0.5 h post-administration",19.5%
same,cough inhibition compared with the vehicle group,"[4]; deDM 5 and 10 mg/kg, BUP 40 mg/kg, deDM + BUP 5 + 40 and 10 + 40 mg/kg",neither deDM nor BUP significantly inhibited cough
"COc1ccc2c(c1)[C@]13CCCC[C@@H]1[C@H](C2)N(C)CC3 [DM, dextromethorphan]",Ki,[5],1670 nM
same,Ki,[6],20500 nM
same,half-life at 1 μM,"[7]; 1 μM, 0.5 mg/mL human liver microsomes, NADPH 1 mM, 37°C, mean, n = 2",1.24 h
same,CLint scaled at 1 μM,"[7]; human, liver microsomes, read-out: CLint, in vitro",23.4 mL/min/kg
same,CLH,"[7]; in vivo hepatic clearance predicted from CLint and hepatic blood flow 20.7 mL/min/kg, human",11.0 mL/min/kg
same,AUC(0-t),[8],184 ± 168 ng·h/mL
same,Cmax,[8]; read-out: Cmax,74.9 ± 49 ng/mL
same,AUC(0-t),[9],194 ng·h/mL
same,Cmax,[9]; read-out: Cmax,56 ng/mL
deuterated dextrorphan [deDX],Ki,[10],420 nM
same,Ki,"[5]; 3H-pentazocine competition, human-derived Jurkat cells, mean, n = 2, read-out: Ki, Sigma-1 receptor",2860 nM
same,Ki,"[11]; 125I-epibatidine competition, human recombinant CHO-K1 cells, mean, n = 2, read-out: Ki, α3β4 nicotinic acetylcholine receptors",15000 nM
same,Ki,[12],120 nM
same,Ki,"[6]; 3H-Nisoxetine competition, mean, n = 2, read-out: Ki, norepinephrine transporter",7930 nM
"CN1CC[C@@]23CCCC[C@@H]2[C@@H]1Cc1ccc(O)cc13 [DX, dextrorphan, reference compound]",higher affinity for NMDA receptors compared to DM,[10]; ratio of Ki values,7 fold
same,Ki,[10],220 nM
same,Ki,[5],2850 nM
same,Ki,[11],9980 nM
same,Ki,[12],140 nM
same,lower affinity for SERT compared to DM,[12]; ratio of Ki values,17 fold
same,Ki,[6],5670 nM
